Test results published in publication PMC3034307 (Bioorganic & medicinal chemistry letters, 2010).
One block for each compound: values may come before it.

Columns and labels:
[1] = molecular target: T1, Shp2 PTP (Homo sapiens, UniProt Q06124); experiment: Shp2 PTP inhibition assay; format: biochemical; conditions: for Inhibition of Shp2 PTP activity at the highest concentration tested: 300 µM
T1 sequence (Q06124 1-593): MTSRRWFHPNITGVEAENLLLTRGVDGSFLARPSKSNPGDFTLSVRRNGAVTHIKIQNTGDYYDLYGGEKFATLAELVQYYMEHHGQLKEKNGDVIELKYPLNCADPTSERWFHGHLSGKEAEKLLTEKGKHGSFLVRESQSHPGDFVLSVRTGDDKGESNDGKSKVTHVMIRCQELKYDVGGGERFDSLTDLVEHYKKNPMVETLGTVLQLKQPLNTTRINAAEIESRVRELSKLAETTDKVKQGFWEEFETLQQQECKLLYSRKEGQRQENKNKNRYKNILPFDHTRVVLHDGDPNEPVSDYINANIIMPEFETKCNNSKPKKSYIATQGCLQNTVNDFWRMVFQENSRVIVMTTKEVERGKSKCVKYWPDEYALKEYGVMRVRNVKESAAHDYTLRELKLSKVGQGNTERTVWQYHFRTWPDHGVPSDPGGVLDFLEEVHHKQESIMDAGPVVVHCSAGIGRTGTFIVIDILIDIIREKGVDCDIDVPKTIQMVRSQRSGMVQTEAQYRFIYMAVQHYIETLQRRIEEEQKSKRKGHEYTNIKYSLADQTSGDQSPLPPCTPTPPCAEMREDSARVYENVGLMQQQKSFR

[2] = molecular target: T2, Shp2 (Homo sapiens, UniProt Q06124); experiment: Surface plasmon resonance; format: binding; conditions: SPR
T2 sequence (Q06124 1-593): T1 sequence (Q06124 1-593)

[3] = molecular target: T1, Shp2 PTP; experiment: Enzyme kinetic assay using DiFMUP as the substrate; format: biochemical

SMILES: COc1ccc2c(c1)CC[C@@H]1[C@@H]2CC[C@@]2(C)[C@H]1CC[C@@]21CCNP(=O)(N(CCCl)CCCl)O1 (stereo partly shown) [NSC233064]
Inhibition of Shp2 PTP activity at the highest concentration tested [1]: did not inhibit

SMILES: C[C@]12CC[C@@H]3c4ccc(OC(=O)N(CCCl)CCCl)cc4CC[C@H]3[C@@H]1CC[C@@H]2O [Estramustine, estramustine]
Inhibition of Shp2 PTP activity at the highest concentration tested [1]: did not inhibit

SMILES: CC1=C(O)C(=O)C=C2C1=CC=C1[C@@]2(C)CC[C@@]2(C)[C@@H]3C[C@@H](C)C(=O)C[C@]3(C)CC[C@]12C [Maitenin]
Fold less potent than celastrol in Shp2 inhibition [1]: 18 fold

Inhibition of Shp2 PTP activity at the highest concentration tested [1]: did not inhibit
SMILES: C[C@]12CC[C@@H]3c4ccc(O)cc4CC[C@H]3[C@@H]1CC[C@@H]2O [Estradiol, estradiol]

SMILES: C[C@]12CC[C@@H]3c4ccc(OC(=O)N(CCCl)CCCl)cc4CC[C@H]3[C@@H]1CC[C@@H]2OP(=O)(O)O [Estramustine phosphate, estramustine phosphate]
association rate constant ka [2]: 2200 M⁻¹ s⁻¹
Ki [3]: 22.8 µM
Inhibition kinetics (best fit) ([3]; DiFMUP substrate): mixed inhibition kinetics
